In ChEMBL document CHEMBL3351410, “The discovery of avanafil for the treatment of erectile dysfunction: a novel pyrimidine-5-carboxamide derivative as a potent and highly selective phosphodiesterase 5 inhibitor” (Bioorg Med Chem Lett, 2014):
pIC50: −log10 of the molar value.

Tests used:
[1] = target: cGMP-specific 3',5'-cyclic phosphodiesterase (Canis lupus familiaris, UniProt O77746); test: Inhibition of dog lungs PDE5 using [3H]cGMP as substrate after 30 mins by scintillation counting analysis
[2] = test system: Corpus cavernosum; test: Induction of relaxant effect in rabbit corpus cavernosum after 30 mins; format: functional, Oryctolagus cuniculus
[3] = Selectivity for dog lungs PDE5 over light-activated bovine retina PDE6
[4] = species: Homo sapiens; test: Selectivity for PDE5 (unknown origin) over PDE6 (unknown origin)
[5] = species: Homo sapiens; test: Selectivity for PDE5 (unknown origin) over PDE7 (unknown origin)
[6] = species: Homo sapiens; test: Selectivity for PDE5 (unknown origin) over PDE1 (unknown origin)
[7] = species: Homo sapiens; test: Selectivity for PDE5 (unknown origin) over PDE11 (unknown origin)
[8] = species: Homo sapiens; test: Selectivity for PDE5 (unknown origin) over PDE9 (unknown origin)
[9] = species: Homo sapiens; test: Selectivity for PDE5 (unknown origin) over PDE4 (unknown origin)
[10] = species: Homo sapiens; test: Selectivity for PDE5 (unknown origin) over PDE8 (unknown origin)
[11] = species: Homo sapiens; test: Selectivity for PDE5 (unknown origin) over PDE10 (unknown origin)
[12] = species: Homo sapiens; test: Selectivity for PDE5 (unknown origin) over PDE3 (unknown origin)
[13] = species: Homo sapiens; test: Selectivity for PDE5 (unknown origin) over PDE2 (unknown origin)

Compound: COc1ccc(CNc2nc(N3CCCC(CO)C3)ncc2C(=O)NCc2ncccn2)cc1Cl (configuration not stated)
- pIC50 [1]: 7.20

Compound: COc1ccc(CNc2nc(N3CCC[C@H]3CO)ncc2C(=O)NCC2CN(C)CCO2)cc1Cl (some centres not stated)
- pIC50 [1]: 8.21
- EC30 [2]: 2.7 nM
- Selectivity ratio [3]: 2000

Compound: COCCCNC(=O)c1cnc(OCc2ccccn2)nc1NCc1ccc(OC)c(Cl)c1
- pIC50 [1]: 7.82
- Selectivity ratio [3]: 240

Compound: COc1ccc(CNc2nc(OCc3ccccn3)ncc2C(=O)NCCCO)cc1Cl
- pIC50 [1]: 7.89
- Selectivity ratio [3]: 420

Compound: CCCc1nn(C)c2c(=O)[nH]c(-c3cc(S(=O)(=O)N4CCN(C)CC4)ccc3OCC)nc12
- Selectivity ratio [4]: 16

Compound: CCCc1nc(C)c2c(=O)nc(-c3cc(S(=O)(=O)N4CCN(CC)CC4)ccc3OCC)[nH]n12
- Selectivity ratio [4]: 21

Compound: COc1ccc(CNc2nc(OCc3ccccn3)ncc2C(=O)NCCCCO)cc1Cl
- pIC50 [1]: 7.92
- Selectivity ratio [3]: 480

Compound: COc1ccc(CNc2nc(N3CCOC(CO)C3)ncc2C(=O)NCc2ccccn2)cc1Cl (configuration not stated)
- pIC50 [1]: 7.49

Compound: COc1ccc(CNc2nc(N3CCC[C@H]3CO)ncc2C(=O)NCc2ncccn2)cc1Cl [AVANAFIL]
- Selectivity ratio [5]: > 1000
- Selectivity ratio [6]: > 1000
- Selectivity ratio [7]: > 19200
- Selectivity ratio [8]: > 1000
- Selectivity ratio [9]: > 1000
- Selectivity ratio [10]: > 1000
- EC30 [2]: 2.1 nM
- Selectivity ratio [4]: 121
- Selectivity ratio [11]: > 1000
- Selectivity ratio [12]: > 1000
- Selectivity ratio [13]: > 1000
- Selectivity ratio [3]: 4000

Compound: COc1ccc(CNc2nc(OCc3ccccn3)ncc2C(=O)NCc2ncccn2)cc1Cl
- pIC50 [1]: 7.92
- Selectivity ratio [3]: 720

Compound: COc1ccc(CNc2nc(N3CCC[C@H]3CO)ncc2C(=O)NCc2ccccn2)cc1Cl
- pIC50 [1]: 8.92
- EC30 [2]: 22 nM
- Selectivity ratio [3]: 4300

Compound: COc1ccc(CNc2nc(OCc3ccccn3)ncc2C(=O)N(C)Cc2ccccn2)cc1Cl
- pIC50 [1]: 7.07

Compound: COc1ccc(CNc2nc(N3CCC[C@@H]3CO)ncc2C(=O)NCc2ncccn2)cc1Cl
- pIC50 [1]: 7.44

Compound: COc1ccc(CNc2nc(OCc3ccccn3)ncc2C(=O)NCCN2CCOCC2)cc1Cl
- pIC50 [1]: 8.25
- Selectivity ratio [3]: 630

Compound: COc1ccc(CNc2nc(OCc3ccccn3)ncc2C(=O)OCc2ncccn2)cc1Cl
- pIC50 [1]: 8.38
- Selectivity ratio [3]: 640

Compound: COc1ccc(CNc2nc(OCc3ccccn3)ncc2C(=O)N[C@H]2CC[C@H](O)CC2)cc1Cl
- pIC50 [1]: 8.46
- Selectivity ratio [3]: 510

Compound: COc1ccc(CNc2nc(N3CCOC[C@H]3CO)ncc2C(=O)NCc2ncccn2)cc1Cl
- pIC50 [1]: < 7.00

Compound: COc1ccc(CNc2nc(OCc3ccccn3)ncc2C(=O)OCc2ccccn2)cc1Cl
- pIC50 [1]: 8.68
- Selectivity ratio [3]: 1000

Compound: CCOC(=O)c1cnc(OCc2ccccn2)nc1NCc1ccc(OC)c(Cl)c1
- pIC50 [1]: 8.26
- EC30 [2]: 37 nM

Compound: COc1ccc(CNc2nc(N(C)CCO)ncc2C(=O)NCc2ccccn2)cc1Cl
- pIC50 [1]: 7.49

Compound: COc1ccc(CNc2nc(N3Cc4ccccc4C[C@H]3CO)ncc2C(=O)NCc2ccccn2)cc1Cl
- pIC50 [1]: 8.19

Compound: COc1ccc(CNc2nc(N3CCC[C@H]3CO)ncc2C(=O)NCCCO)cc1Cl
- pIC50 [1]: 8.18
- EC30 [2]: 4.9 nM
- Selectivity ratio [3]: 1500

Compound: COc1ccc(CN=c2[nH]c(N3CCC[C@H]3CO)ncc2C(=O)NCc2ncccn2)cc1Cl [AVANAFIL]
- pIC50 [1]: 8.28

Compound: CN1CC(=O)N2[C@H](c3ccc4c(c3)OCO4)c3[nH]c4ccccc4c3C[C@@H]2C1=O
- Selectivity ratio [7]: 25
- Selectivity ratio [4]: 550

Compound: COc1ccc(CNc2nc(N3CCC(CO)C3)ncc2C(=O)NCc2ncccn2)cc1Cl (configuration not stated)
- pIC50 [1]: 7.60

Compound: COc1ccc(CNc2nc(N3CCC(O)CC3)ncc2C(=O)NCc2ccccn2)cc1Cl
- pIC50 [1]: 7.23

Compound: COc1ccc(CNc2nc(N3CCC[C@H]3CO)ncc2C(=O)N[C@H]2CC[C@H](O)CC2)cc1Cl
- pIC50 [1]: 8.74
- EC30 [2]: >100 nM
- Selectivity ratio [3]: 5600

Compound: COc1ccc(CNc2nc(OCc3ccccn3)ncc2C(=O)NCc2ccccn2)cc1Cl
- pIC50 [1]: 8.57
- Selectivity ratio [3]: 480

Compound: COc1ccc(CNc2nc(N3CCCCC3CO)ncc2C(=O)NCc2ccccn2)cc1Cl (configuration not stated)
- pIC50 [1]: 7.27

Compound: COc1ccc(CNc2nc(N3CCC[C@H]3CO)ncc2C(=O)N[C@H]2CC[C@H](OC)CC2)cc1Cl
- pIC50 [1]: 9.05
- EC30 [2]: 6.8 nM
- Selectivity ratio [3]: 7700
